US11053204B2, “Pyrimidinyloxy benzene derivatives as herbicides” (FMC Corporation, priority 2015, dated 2021)

Experiments:
Format in all cases: in vivo
[1] = system: corn (Zea mays); experiment: Test C postemergence, plant response rating; conditions: for Corn plant response rating: scale 0 to 100 (0 no effect, 100 complete control)
Method in brief: (§1)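 Both timings shared one formulation, a non-phytotoxic solvent mixture with surfactant, and a greenhouse period of 13 to 15 d. Preemergence used seeded loam/sand or silt loam soil, postemergence used 2 to 18 cm plants; visual ratings ran from 0 (no effect) to 100 (complete control).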

[2] = system: soybean (Glycine max); experiment: Test C postemergence, plant response rating; conditions: for Soybean plant response rating: scale 0 to 100 (0 no effect, 100 complete control)
Method in brief: as §1

[3] = system: oilseed rape (Brassica napus); experiment: Test C postemergence, plant response rating; conditions: for Oilseed Rape plant response rating: scale 0 to 100 (0 no effect, 100 complete control)
Method in brief: as §1

[4] = system: ragweed (common ragweed, Ambrosia elatior); experiment: Test C postemergence, plant response rating; conditions: for Ragweed plant response rating: scale 0 to 100 (0 no effect, 100 complete control)
Method in brief: as §1

[5] = system: nutsedge, yellow (yellow nutsedge, Cyperus esculentus); experiment: Test C postemergence, plant response rating; conditions: for Nutsedge, Yellow plant response rating: scale 0 to 100 (0 no effect, 100 complete control)
Method in brief: as §1

[6] = system: velvetleaf (Abutilon theophrasti); experiment: Test C postemergence, plant response rating
Method in brief: as §1

[7] = system: blackgrass (Alopecurus myosuroides); experiment: Test C postemergence, plant response rating; conditions: for Plant response rating, Blackgrass: scale 0 to 100; for Blackgrass plant response rating: scale 0 to 100 (0 no effect, 100 complete control)
Method in brief: as §1

[8] = system: kochia (Kochia scoparia); experiment: Test C postemergence, plant response rating; conditions: for Kochia plant response rating: scale 0 to 100 (0 no effect, 100 complete control)
Method in brief: as §1

[9] = system: lambsquarters (Chenopodium album); experiment: Test C postemergence, plant response rating; conditions: for Lambsquarters plant response rating: scale 0 to 100 (0 no effect, 100 complete control)
Method in brief: as §1

[10] = system: oat, wild (wild oat Avena fatua); experiment: Test C postemergence, plant response rating; conditions: for Oat, Wild plant response rating: scale 0 to 100 (0 no effect, 100 complete control)
Method in brief: as §1

[11] = system: galium (catchweed bedstraw, Galium aparine); experiment: Test C postemergence, plant response rating; conditions: for Galium plant response rating: scale 0 to 100 (0 no effect, 100 complete control)
Method in brief: as §1

[12] = system: chickweed (common chickweed, Stellaria media); experiment: Test C postemergence, plant response rating; conditions: for Chickweed plant response rating: scale 0 to 100 (0 no effect, 100 complete control)
Method in brief: as §1

[13] = system: morningglory (Ipomoea coccinea); experiment: Test C postemergence, plant response rating; conditions: for Morningglory plant response rating: scale 0 to 100 (0 no effect, 100 complete control)
Method in brief: as §1

[14] = system: waterhemp (common waterhemp, Amaranthus rudis); experiment: Test C postemergence, plant response rating
Method in brief: as §1

[15] = system: wheat (winter wheat, Triticum aestivum); experiment: Test C postemergence, plant response rating
Method in brief: as §1

[16] = system: foxtail, giant (giant foxtail, Setaria faberii); experiment: Test C postemergence, plant response rating; conditions: for Foxtail, Giant plant response rating: scale 0 to 100 (0 no effect, 100 complete control)
Method in brief: as §1

[17] = system: oat, wild (wild oat Avena fatua); experiment: Test C preemergence, plant response rating
[18] = system: pigweed, palmer (palmer pigweed, Amaranthus palmeri); experiment: Test C preemergence, plant response rating
[19] = system: wild poinsettia (Euphorbia heterophylla); experiment: Test C preemergence, plant response rating
[20] = system: surinam grass (Brachiaria decumbens); experiment: Test C preemergence, plant response rating
[21] = system: windgrass (Apera spica-venti); experiment: Test C preemergence, plant response rating
[22] = 125 g ai/ha, scale 0 to 100 (0 no effect, 100 complete control)

Q: What does the source list for CCCCC(=O)c1c(Br)cccc1Oc1ncc(Cl)cn1 [Compound 79]?
A: Plant response rating, Corn ([1]; 16 g ai/ha, scale of 0 to 100): 15; Plant response rating, Corn ([1]; 31 g ai/ha, scale 0 to 100): 25; Corn plant response rating ([1]; 62 g ai/ha): 20; Corn plant response rating ([1]; 125 g ai/ha): 20; Plant response rating, Soybean ([2]; 16 g ai/ha, scale of 0 to 100): 60; Plant response rating, Soybean ([2]; 31 g ai/ha, scale 0 to 100): 70; Soybean plant response rating ([2]; 62 g ai/ha): 65; Soybean plant response rating ([2]; 125 g ai/ha): 65; Plant response rating, Oilseed Rape ([3]; 16 g ai/ha, scale of 0 to 100): 80; Plant response rating, Oilseed Rape ([3]; 31 g ai/ha, scale 0 to 100): 98; Oilseed Rape plant response rating ([3]; 62 g ai/ha): 98; Oilseed Rape plant response rating ([3]; 125 g ai/ha): 100; Plant response rating, Ragweed ([4]; 16 g ai/ha, scale of 0 to 100): 30; Plant response rating, Ragweed ([4]; 31 g ai/ha, scale 0 to 100): 20; Ragweed plant response rating ([4]; 62 g ai/ha): 75; Ragweed plant response rating ([4]; 125 g ai/ha): 65; Plant response rating, Nutsedge, Yellow ([5]; 16 g ai/ha, scale of 0 to 100): 0; Plant response rating, Nutsedge, Yellow ([5]; 31 g ai/ha, scale 0 to 100): 5; Nutsedge, Yellow plant response rating ([5]; 62 g ai/ha): 5; Nutsedge, Yellow plant response rating ([5]; 125 g ai/ha): 5; Plant response rating, Velvetleaf ([6]; 16 g ai/ha, scale of 0 to 100): 30; Plant response rating, Velvetleaf ([6]; 31 g ai/ha, scale 0 to 100): 75; Velvetleaf plant response rating [6, 22]: 90; Plant response rating, Blackgrass ([7]; 16 g ai/ha): 20; Plant response rating, Blackgrass ([7]; 31 g ai/ha): 10; Blackgrass plant response rating ([7]; 62 g ai/ha): 20; Blackgrass plant response rating ([7]; 125 g ai/ha): 30; Plant response rating, Kochia ([8]; 16 g ai/ha, scale of 0 to 100): 75; Plant response rating, Kochia ([8]; 31 g ai/ha, scale 0 to 100): 80; Kochia plant response rating ([8]; 62 g ai/ha): 90; Kochia plant response rating ([8]; 125 g ai/ha): 98; Plant response rating, Lambsquarters ([9]; 16 g ai/ha, scale of 0 to 100): 75; Plant response rating, Lambsquarters ([9]; 31 g ai/ha, scale 0 to 100): 85; Lambsquarters plant response rating ([9]; 62 g ai/ha): 90; Lambsquarters plant response rating ([9]; 125 g ai/ha): 100; Plant response rating, Oat, Wild ([10]; 16 g ai/ha, scale of 0 to 100): 15; Plant response rating, Oat, Wild ([10]; 31 g ai/ha, scale 0 to 100): 60; Oat, Wild plant response rating ([10]; 62 g ai/ha): 45; Oat, Wild plant response rating ([10]; 125 g ai/ha): 35; Plant response rating, Galium ([11]; 16 g ai/ha, scale of 0 to 100): 75; Plant response rating, Galium ([11]; 31 g ai/ha, scale 0 to 100): 80; Galium plant response rating ([11]; 62 g ai/ha): 85; Galium plant response rating ([11]; 125 g ai/ha): 95; Plant response rating, Chickweed ([12]; 16 g ai/ha, scale of 0 to 100): 95; Plant response rating, Chickweed ([12]; 31 g ai/ha, scale 0 to 100): 90; Chickweed plant response rating ([12]; 62 g ai/ha): 95; Chickweed plant response rating ([12]; 125 g ai/ha): 98; Plant response rating, Morningglory ([13]; 16 g ai/ha, scale of 0 to 100): 10; Plant response rating, Morningglory ([13]; 31 g ai/ha, scale 0 to 100): 20; Morningglory plant response rating ([13]; 62 g ai/ha): 30; Morningglory plant response rating ([13]; 125 g ai/ha): 30; Plant response rating, Waterhemp ([14]; 16 g ai/ha, scale of 0 to 100): 95; Plant response rating, Waterhemp ([14]; 31 g ai/ha, scale 0 to 100): 95; Waterhemp plant response rating [14, 22]: 98; Plant response rating, Wheat ([15]; 16 g ai/ha, scale of 0 to 100): 5; Plant response rating, Wheat ([15]; 31 g ai/ha, scale 0 to 100): 5; Wheat plant response rating [15, 22]: 15; Plant response rating, Foxtail, Giant ([16]; 16 g ai/ha, scale of 0 to 100): 10; Plant response rating, Foxtail, Giant ([16]; 31 g ai/ha, scale 0 to 100): 20; Foxtail, Giant plant response rating ([16]; 62 g ai/ha): 25; Foxtail, Giant plant response rating ([16]; 125 g ai/ha): 40; Plant response rating, Oat, Wild ([17]; 16 g ai/ha, scale 0 to 100): 0; Plant response rating, Oat, Wild ([17]; 31 g ai/ha, scale 0 to 100): 0; Plant response rating, Oat, Wild ([17]; 62 g ai/ha, scale 0 to 100): 5; Plant response rating, Oat, Wild ([17]; 125 g ai/ha, scale of 0 to 100): 40; Plant response rating, Pigweed, Palmer ([18]; 16 g ai/ha, scale 0 to 100): 75; Plant response rating, Pigweed, Palmer ([18]; 31 g ai/ha, scale 0 to 100): 85; Plant response rating, Pigweed, Palmer ([18]; 62 g ai/ha, scale 0 to 100): 90; Plant response rating, Pigweed, Palmer ([18]; 125 g ai/ha, scale of 0 to 100): 90; Plant response rating, Poinsettia, Wild ([19]; 16 g ai/ha, scale 0 to 100): 0; Plant response rating, Poinsettia, Wild ([19]; 31 g ai/ha, scale 0 to 100): 0; Plant response rating, Poinsettia, Wild ([19]; 62 g ai/ha, scale 0 to 100): 10; Plant response rating, Poinsettia, Wild ([19]; 125 g ai/ha, scale of 0 to 100): 40; Plant response rating, Surinam Grass ([20]; 16 g ai/ha, scale 0 to 100): 5; Plant response rating, Surinam Grass ([20]; 31 g ai/ha, scale 0 to 100): 30; Plant response rating, Surinam Grass ([20]; 62 g ai/ha, scale 0 to 100): 50; Plant response rating, Surinam Grass ([20]; 125 g ai/ha, scale of 0 to 100): 85; Plant response rating, Windgrass ([21]; 16 g ai/ha, scale 0 to 100): 60; Plant response rating, Windgrass ([21]; 31 g ai/ha, scale 0 to 100): 80; Plant response rating, Windgrass ([21]; 62 g ai/ha, scale 0 to 100): 100; Plant response rating, Windgrass ([21]; 125 g ai/ha, scale of 0 to 100): 100
